Experimental data as given in ChEMBL document CHEMBL1201862, “PubChem BioAssay data set” (2004).
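96-well plates; 48 h exposure; 5 concentrations. Endpoints by linear interpolation between flanking doses. Not reached: highest tested concentration assigned. GI50: concentration for 50% inhibition of growth.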 Calls of active or inactive are those of the source. No stated cut-off is given here; in the data, active = GI50 up to about 1.1 µM and inactive = higher.

Legend:
Assay in all cases: inhibition of tumour cell growth, NCI panel, 48 h
T47D = system: T47D
PC-3 = system: PC-3
SF-539 = system: SF-539
HCT-15 = system: HCT-15
786-0 = system: 786-0
MCF7 = system: MCF7
IGROV-1 = system: IGROV-1
SNB-75 = system: SNB-75
COLO 205 = system: COLO 205
OVCAR-4 = system: OVCAR-4
HL-60 = system: HL-60
HOP-62 = system: HOP-62
CCRF-CEM = system: CCRF-CEM
SK-OV-3 = system: SK-OV-3
K562 = system: K562
NCI/ADR-RES = system: NCI/ADR-RES
SF-268 = system: SF-268
ACHN = system: ACHN
OVCAR-8 = system: OVCAR-8
SNB-19 = system: SNB-19
HT-29 = system: HT-29
KM12 = system: KM12
HCC 2998 = system: HCC 2998
SK-MEL-28 = system: SK-MEL-28
NCI-H460 = system: NCI-H460
SR = system: SR
OVCAR-5 = system: OVCAR-5
U-251 = system: U-251
MDA-MB-435 = system: MDA-MB-435
A549 = system: A549
MDA-MB-231 = system: MDA-MB-231
MOLT-4 = system: MOLT-4
UO-31 = system: UO-31
Hs-578T = system: Hs-578T
UACC-257 = system: UACC-257
SF-295 = system: SF-295
TK-10 = system: TK-10
M14 = system: M14
SW-620 = system: SW-620
SN12C = system: SN12C
EKVX = system: EKVX
HCT-116 = system: HCT-116
MDA-N = system: MDA-N
NCI-H522 = system: NCI-H522
SK-MEL-5 = system: SK-MEL-5
RPMI-8226 = system: RPMI-8226
OVCAR-3 = system: OVCAR-3
SK-MEL-2 = system: SK-MEL-2
NCI-H23 = system: NCI-H23
UACC-62 = system: UACC-62
LOX IMVI = system: LOX IMVI
HOP-92 = system: HOP-92
DU-145 = system: DU-145
NCI-H226 = system: NCI-H226
RXF 393 = system: RXF 393
CAKI-1 = system: CAKI-1
Malme-3M = system: Malme-3M
A498 = system: A498

O=C(C1C(c2ccccc2)N1C(c1ccccc1)c1ccccc1)C1C(c2ccccc2)N1C(c1ccccc1)c1ccccc1 (stereo not given)
GI50 (T47D): 28.4 µM (inactive) | GI50 (PC-3): 23.9 µM (inactive) | GI50 (SF-539): 20 µM (inactive) | GI50 (HCT-15): > 10 µM | GI50 (786-0): 21.3 µM (inactive) | GI50 (MCF7): 5.31 µM (inactive) | GI50 (IGROV-1): > 10 µM (inactive) | GI50 (SNB-75): 45.6 µM (inactive) | GI50 (COLO 205): > 10 µM (inactive) | GI50 (OVCAR-4): 38.1 µM (inactive) | GI50 (HL-60): 2.88 µM (inactive) | GI50 (HOP-62): > 100 µM (inactive) | GI50 (CCRF-CEM): 3.61 µM (inactive) | GI50 (SK-OV-3): > 100 µM (inactive) | GI50 (K562): 3.66 µM (inactive) | GI50 (NCI/ADR-RES): 27.4 µM (inactive) | GI50 (SF-268): 24.7 µM (inactive) | GI50 (ACHN): > 10 µM (inactive) | GI50 (OVCAR-8): 29.6 µM (inactive) | GI50 (SNB-19): 97.5 µM (inactive) | GI50 (HT-29): 13.6 µM (inactive) | GI50 (KM12): 26.9 µM (inactive) | GI50 (HCC 2998): 17.7 µM (inactive) | GI50 (SK-MEL-28): 15.7 µM (inactive) | GI50 (NCI-H460): 15.5 µM (inactive) | GI50 (SR): 3.51 µM (inactive) | GI50 (OVCAR-5): 32.1 µM (inactive) | GI50 (U-251): 25.1 µM (inactive) | GI50 (MDA-MB-435): 36.4 µM (inactive) | GI50 (A549): 39 µM (inactive) | GI50 (MDA-MB-231): 19.8 µM (inactive) | GI50 (MOLT-4): 6.9 µM (inactive) | GI50 (UO-31): 21 µM (inactive) | GI50 (Hs-578T): 20.2 µM (inactive) | GI50 (UACC-257): 18.5 µM (inactive) | GI50 (SF-295): 75.7 µM (inactive) | GI50 (TK-10): 24.8 µM (inactive) | GI50 (M14): 37.2 µM (inactive) | GI50 (SW-620): 5.14 µM (inactive) | GI50 (SN12C): 21.8 µM (inactive) | GI50 (EKVX): 48.2 µM (inactive) | GI50 (HCT-116): 5.08 µM (inactive) | GI50 (MDA-N): 28.9 µM (inactive) | GI50 (NCI-H522): 5.71 µM (inactive) | GI50 (SK-MEL-5): 20.6 µM (inactive) | GI50 (RPMI-8226): 3.59 µM (inactive)

CC1(C)NC(C)(C)/C(=N\O)C(=NO)/C1=N/O
GI50 (OVCAR-3): > 100 µM (inactive) | GI50 (T47D): > 100 µM (inactive) | GI50 (PC-3): > 100 µM (inactive) | GI50 (SF-539): > 100 µM (inactive) | GI50 (HCT-15): > 100 µM | GI50 (SK-MEL-2): > 100 µM (inactive) | GI50 (786-0): > 100 µM (inactive) | GI50 (MCF7): > 100 µM (inactive) | GI50 (IGROV-1): > 100 µM (inactive) | GI50 (SNB-75): > 100 µM (inactive) | GI50 (COLO 205): > 100 µM (inactive) | GI50 (OVCAR-4): > 100 µM (inactive) | GI50 (HL-60): > 100 µM (inactive) | GI50 (HOP-62): > 100 µM (inactive) | GI50 (CCRF-CEM): > 100 µM (inactive) | GI50 (SK-OV-3): > 100 µM (inactive) | GI50 (K562): > 100 µM (inactive) | GI50 (NCI-H23): > 100 µM (inactive) | GI50 (UACC-62): > 100 µM (inactive) | GI50 (NCI/ADR-RES): > 100 µM (inactive) | GI50 (SF-268): > 100 µM (inactive) | GI50 (LOX IMVI): > 100 µM (inactive) | GI50 (ACHN): > 100 µM (inactive) | GI50 (OVCAR-8): > 100 µM (inactive) | GI50 (SNB-19): > 100 µM (inactive) | GI50 (HT-29): > 100 µM (inactive) | GI50 (KM12): > 100 µM (inactive) | GI50 (HCC 2998): > 100 µM (inactive) | GI50 (HOP-92): > 100 µM (inactive) | GI50 (SK-MEL-28): > 100 µM (inactive) | GI50 (DU-145): > 100 µM (inactive) | GI50 (NCI-H460): > 100 µM (inactive) | GI50 (SR): > 100 µM (inactive) | GI50 (NCI-H226): > 100 µM (inactive) | GI50 (OVCAR-5): > 100 µM (inactive) | GI50 (U-251): > 100 µM (inactive) | GI50 (MDA-MB-435): > 100 µM (inactive) | GI50 (A549): > 100 µM (inactive) | GI50 (MDA-MB-231): > 100 µM (inactive) | GI50 (MOLT-4): > 100 µM (inactive) | GI50 (UO-31): > 100 µM (inactive) | GI50 (Hs-578T): > 100 µM (inactive) | GI50 (RXF 393): > 100 µM (inactive) | GI50 (UACC-257): > 100 µM (inactive) | GI50 (SF-295): > 100 µM (inactive) | GI50 (TK-10): > 100 µM (inactive) | GI50 (M14): > 100 µM (inactive) | GI50 (CAKI-1): > 100 µM (inactive) | GI50 (SW-620): > 100 µM (inactive) | GI50 (SN12C): > 100 µM (inactive) | GI50 (EKVX): > 100 µM (inactive) | GI50 (HCT-116): > 100 µM (inactive) | GI50 (MDA-N): > 100 µM (inactive) | GI50 (SK-MEL-5): > 100 µM (inactive) | GI50 (RPMI-8226): > 100 µM (inactive) | GI50 (Malme-3M): > 100 µM (inactive)

CN(C)N1C(=O)S/C(=C\c2ccc([N+](=O)[O-])cc2)C1=O
GI50 (OVCAR-3): > 100 µM (inactive) | GI50 (T47D): 65.5 µM (inactive) | GI50 (PC-3): > 100 µM (inactive) | GI50 (SF-539): > 100 µM (inactive) | GI50 (HCT-15): > 100 µM | GI50 (SK-MEL-2): > 100 µM (inactive) | GI50 (786-0): > 100 µM (inactive) | GI50 (MCF7): > 100 µM (inactive) | GI50 (IGROV-1): > 100 µM (inactive) | GI50 (SNB-75): 0.0458 µM (active) | GI50 (COLO 205): > 100 µM (inactive) | GI50 (OVCAR-4): > 100 µM (inactive) | GI50 (HL-60): 34 µM (inactive) | GI50 (HOP-62): > 100 µM (inactive) | GI50 (CCRF-CEM): 55.2 µM (inactive) | GI50 (SK-OV-3): > 100 µM (inactive) | GI50 (NCI-H23): > 100 µM (inactive) | GI50 (UACC-62): > 100 µM (inactive) | GI50 (NCI/ADR-RES): > 100 µM (inactive) | GI50 (SF-268): > 100 µM (inactive) | GI50 (LOX IMVI): > 100 µM (inactive) | GI50 (ACHN): > 100 µM (inactive) | GI50 (OVCAR-8): 99.3 µM (inactive) | GI50 (HT-29): > 100 µM (inactive) | GI50 (KM12): > 100 µM (inactive) | GI50 (HCC 2998): > 100 µM (inactive) | GI50 (HOP-92): > 100 µM (inactive) | GI50 (SK-MEL-28): > 100 µM (inactive) | GI50 (DU-145): > 100 µM (inactive) | GI50 (NCI-H460): > 100 µM (inactive) | GI50 (SR): 57.4 µM (inactive) | GI50 (NCI-H226): > 100 µM (inactive) | GI50 (OVCAR-5): > 100 µM (inactive) | GI50 (U-251): 51.5 µM (inactive) | GI50 (MDA-MB-435): > 100 µM (inactive) | GI50 (A549): > 100 µM (inactive) | GI50 (MDA-MB-231): > 100 µM (inactive) | GI50 (MOLT-4): > 100 µM (inactive) | GI50 (Hs-578T): > 100 µM (inactive) | GI50 (RXF 393): > 100 µM (inactive) | GI50 (A498): > 100 µM (inactive) | GI50 (UACC-257): > 100 µM (inactive) | GI50 (SF-295): > 100 µM (inactive) | GI50 (TK-10): > 100 µM (inactive) | GI50 (M14): > 100 µM (inactive) | GI50 (CAKI-1): > 100 µM (inactive) | GI50 (SN12C): > 100 µM (inactive) | GI50 (EKVX): > 100 µM (inactive) | GI50 (HCT-116): > 100 µM (inactive) | GI50 (MDA-N): > 100 µM (inactive) | GI50 (NCI-H522): > 100 µM (inactive) | GI50 (SK-MEL-5): > 100 µM (inactive) | GI50 (Malme-3M): > 100 µM (inactive)
